Converted amounts (≈) assume the structure as drawn. Read-outs that look alike come from different tables or passages of the source.
Legend:
Assay type in all cases: cell-based, Mycobacterium tuberculosis
[1] = test system: Fluoroquinolone resistant strain derived from H37Rv Mtb, gyrA mutant (D94N)
[2] = test system: Isoniazid resistant strain derived from H37Rv Mtb, katG mutant (Y155* = truncation)
[3] = test system: Isoniazid resistant strain ACTCC35822
[4] = test system: Rifampicin resistant strain derived from H37Rv Mtb, ropB mutant (S522L)
[5] = test system: Rifampicin resistant strain ACTCC35838; test: microbe, parasite or virus in culture; details: read-out: MIC RIF res2

SMILES | MIC FQ res [1] [µM] | MIC INH res1 [2] [µM] | MIC INH res2 [3] [µM] | MIC RIF res1 [4] [µM] | MIC ([5]; Mycobacterium tuberculosis) [µM] | MIC INH res2 ([3]; ACTCC35822) [µM] | MIC [5] [µM]
CO[C@H]1/C=C/O[C@@]2(C)Oc3c(C)c(O)c4c(O)c(c(/C=N/N5CCN(C)CC5)c(O)c4c3C2=O)NC(=O)/C(C)=C\C=C\[C@H](C)[C@H](O)[C@@H](C)[C@@H](O)[C@@H](C)[C@H](OC(C)=O)[C@@H]1C [RIF, Rifampicin] | 0.043 (≈ 0.0354 µg/mL) | 0.027 (≈ 0.0222 µg/mL) | 0.013 (≈ 0.0107 µg/mL) | 3.2 (≈ 2.63 µg/mL) | > 50 | – | –
NNC(=O)c1ccncc1 [INH, Isoniazid] | 0.34 (≈ 0.0466 µg/mL) | >200 | >200 | 0.160 (≈ 0.0219 µg/mL) | 0.37 (≈ 0.0507 µg/mL) | – | –
Cc1cn2c(C(=O)NCc3ccc(N4CCN(c5ccc(C(F)(F)F)cn5)CC4)c(F)c3)c(C)nc2s1 [ND-11543, N-(3-fluoro-4-(4-(5-(trifluoromethyl)pyridin-2-yl)piperazin-1-yl)benzyl)-2,6-dimethylimidazo[2,1-b]thiazole-5-carboxamide] | 0.010 (≈ 0.00533 µg/mL) | 0.012 (≈ 0.00639 µg/mL) | 0.0047 (≈ 0.0025 µg/mL) | 0.0017 (≈ 0.000905 µg/mL) | 0.0057 (≈ 0.00304 µg/mL) | – | –
Cc1cn2c(C(=O)NCc3ccc(N4CCS(=O)(=O)CC4)c(F)c3)c(C)nc2s1 [ND-11903, N-(4-(1,1-Dioxidothiomorpholino)-3-fluorobenzyl)-2,6-dimethylimidazo[2,1-b]thiazole-5-carboxamide] | 3.2 (≈ 1.4 µg/mL) | 6.5 (≈ 2.84 µg/mL) | 5.0 (≈ 2.18 µg/mL) | 2.9 (≈ 1.27 µg/mL) | 7 (≈ 3.06 µg/mL) | – | –
CCc1nc2sc(C)cn2c1C(=O)NCc1ccc(Oc2cccc(C(F)(F)F)c2)nc1 [ND-12024, 6-Ethyl-2-methyl-N-((6-(3-(trifluoromethyl)phenoxy)yridine-3-yl)methyl)imidazo[2,1-b]thiazole-5-carboxamide] | 0.40 (≈ 0.184 µg/mL) | 0.49 (≈ 0.226 µg/mL) | 0.22 (≈ 0.101 µg/mL) | 0.047 (≈ 0.0216 µg/mL) | 0.13 (≈ 0.0599 µg/mL) | – | –
C[C@H]1COc2c(N3CCN(C)CC3)c(F)cc3c(=O)c(C(=O)O)cn1c23 [LEV, Levoflaxacin] | 91 (≈ 32.9 µg/mL) | 3.97 (≈ 1.43 µg/mL) | – | 3.43 (≈ 1.24 µg/mL) | – | 5.83 (≈ 2.11 µg/mL) | 3.83 (≈ 1.38 µg/mL)
CCc1nc2ccc(Cl)cn2c1C(=O)NCc1ccc(N2CCC(c3ccc(OC(F)(F)F)cc3)CC2)cc1 [Q203] | 0.0058 (≈ 0.00323 µg/mL) | 0.0074 (≈ 0.00412 µg/mL) | 0.0038 (≈ 0.00212 µg/mL) | 0.0030 (≈ 0.00167 µg/mL) | 0.0056 (≈ 0.00312 µg/mL) | – | –

— PMC6944458, “Intracellular and in vivo evaluation of imidazo[2,1-b]thiazole-5-carboxamide anti-tuberculosis compounds” (PLoS ONE, 2020)
